# Results taken from patent US20070219180A1, “Muscle Relaxtion Accelerator and Therapeutic Agent for Muscular Tissue Diseases Such as Muscle Relaxation Failure” (priority 2004, published 2007).
# System: male Wistar rats
# Test: Experiment 1: left ventricular end diastolic pressure in rats under calcium chloride and norepinephrine infusion
# Format: in vivo, rat
# Method: In Experiment 1, the hydrochloride of 4-[3-(4-benzylpiperidine-1-yl) propionyl]-7-methoxy-2,3,4,5-tetrahydro-1,4-benzothiazepine, the compound in the invention (hereinafter called the compound), was used as a pharmaceutically acceptable salt of the 1,4-benzothiazepine derivative. Eight-week old male Wistar rats weighing 300-330 g were used in the study. The rats were anesthetized with 1,000 mg/kg of urethane and 80 mg/kg of α-chloralose by subperitoneal injection, and natural respiration was maintained. In this experiment, 100 mg of the compound was dissolved in 1 ml of dimethylsulfoxide (DMSO) and the resulting DMSO solution of the compound was stored at 4° C. Norepinephrine solution was prepared by dissolving 1 mg of norepinephrine in 41 μl of distilled water, at an infusion speed of 40 μg/kg/min.
# Firstly, continuous infusion catheters of calcium chloride solution or norepinephrine solution containing calcium chloride were inserted into the right external jugular veins of the rats, and microchip catheters (SPC-320, Millar) were inserted into the left ventricles via the right common arteries. In addition, test drug infusion catheters were inserted into the right femoral veins.
# A 1-lead electrocardiogram and the left ventricular pressure were recorded simultaneously on a personal computer via an A/D converter. In order to determine the left ventricular end diastolic pressure, a pressure equivalent to the R wave of the electrocardiogram was measured at 20 heart beats every minute, and the mean of the pressure so measured was determined as the left ventricular end diastolic pressure, at the time of measuring. In the preparation step, blood pressure, pulse, and electrocardiogram of the rats were monitored for 15 minutes and allowed to stabilize, and then 5% dextrose solution containing calcium chloride (at a concentration based on the weight of the rat) was infused into the right external jugular vein for 20 minutes at 16.6 μl/min (9.0 mg/kg/min of calcium chloride).
# Secondly, norepinephrine solution containing calcium chloride without changes in dosage was immediately injected at a rate of 40 μg/kg/min via the right external jugular vein. After the start of the administration, calcium chloride and norepinephrine were then continuously injected in the form of a norepinephrine solution containing calcium chloride. With continuous injection of calcium chloride and norepinephrine (in the form of a norepinephrine solution containing calcium chloride) via the right external jugular vein, 0.2 ml of […] was administered over 30 seconds to the first rat (weight: 300 g) as a control via the right femoral vein, 5 minutes after commencement of injection (intravenous injection) of calcium chloride and norepinephrine (in the form of a norepinephrine solution containing calcium chloride) via the right external jugular vein; this rat was defined as Control 1. Similarly to Control 1, with continuous injection of calcium chloride and norepinephrine (in the form of a norepinephrine solution containing calcium chloride) via the right external jugular vein, 0.2 ml of 1% DMSO solution as a solvent control was administered over 30 seconds to a second rat (weight: 310 g) via the right femoral vein, 5 minutes after commencement of injection (intravenous injection) via the right external jugular vein of calcium chloride and norepinephrine (in the form of a norepinephrine solution containing calcium chloride); this rat was defined as Control 2. […]
smiles,measurement,setting,value
"COc1ccc2c(c1)CN(C(=O)CCN1CCC(Cc3ccccc3)CC1)CCS2 [the compound, 4-[3-(4-benzylpiperidine-1-yl)propionyl]-7-methoxy-2,3,4,5-tetrahydro-1,4-benzothiazepine]",Left ventricular diastolic pressure compared with Controls 1 and 2 at the same time point,"15 minutes after commencement of the test drug, Test drugs 1 and 2",less than half those in Controls 1 and 2
same,Left ventricular end diastolic pressure,"Test drug 1: 0.3 mg/kg i.v. over 30 s + 0.02 mg/kg/min to 15 min, 0 minutes (just before the start of test drug administration)",8.9 mmHg
same,Left ventricular end diastolic pressure,"Test drug 1: 0.3 mg/kg i.v. over 30 s + 0.02 mg/kg/min to 15 min, 5 minutes before test drug (just before the start of norepinephrine), baseline",8.6 mmHg
same,Left ventricular end diastolic pressure,"Test drug 1: 0.3 mg/kg i.v. over 30 s + 0.02 mg/kg/min to 15 min, 10 minutes before test drug (15 minutes after the start of CaCl2), baseline",8.5 mmHg
same,Left ventricular end diastolic pressure,"Test drug 1: 0.3 mg/kg i.v. over 30 s + 0.02 mg/kg/min to 15 min, 15 minutes before test drug (10 minutes after the start of CaCl2), baseline",8.6 mmHg
same,Left ventricular end diastolic pressure,"Test drug 1: 0.3 mg/kg i.v. over 30 s + 0.02 mg/kg/min to 15 min, 20 minutes before test drug (5 minutes after the start of CaCl2), baseline",7.9 mmHg
same,Left ventricular end diastolic pressure,"Test drug 1: 0.3 mg/kg i.v. over 30 s + 0.02 mg/kg/min to 15 min, 25 minutes before test drug (just after the start of CaCl2), baseline",7.8 mmHg
same,Left ventricular end diastolic pressure,"Test drug 1: 0.3 mg/kg i.v. over 30 s + 0.02 mg/kg/min to 15 min, CaCl2 + norepinephrine infusion, 5 minutes after the start of test drug administration",10.6 mmHg
same,Left ventricular end diastolic pressure,"Test drug 1: 0.3 mg/kg i.v. over 30 s + 0.02 mg/kg/min to 15 min, CaCl2 + norepinephrine infusion, 10 minutes after the start of test drug administration",12.5 mmHg
same,Left ventricular end diastolic pressure,"Test drug 1: 0.3 mg/kg i.v. over 30 s + 0.02 mg/kg/min to 15 min, CaCl2 + norepinephrine infusion, 15 minutes after the start of test drug administration",11.8 mmHg
same,Left ventricular end diastolic pressure,"Test drug 1: 0.3 mg/kg i.v. over 30 s + 0.02 mg/kg/min to 15 min, CaCl2 + norepinephrine infusion, 30 minutes before test drug (5 minutes before the start of CaCl2), baseline",7.5 mmHg
same,Left ventricular end diastolic pressure,"Test drug 2: 0.3 mg/kg i.v. over 30 s only, 0 minutes (just before the start of test drug administration)",9.6 mmHg
same,Left ventricular end diastolic pressure,"Test drug 2: 0.3 mg/kg i.v. over 30 s only, 5 minutes before test drug (just before the start of norepinephrine), baseline",9.3 mmHg
same,Left ventricular end diastolic pressure,"Test drug 2: 0.3 mg/kg i.v. over 30 s only, 10 minutes before test drug (15 minutes after the start of CaCl2), baseline",9.0 mmHg
same,Left ventricular end diastolic pressure,"Test drug 2: 0.3 mg/kg i.v. over 30 s only, 15 minutes before test drug (10 minutes after the start of CaCl2), baseline",9.2 mmHg
same,Left ventricular end diastolic pressure,"Test drug 2: 0.3 mg/kg i.v. over 30 s only, 20 minutes before test drug (5 minutes after the start of CaCl2), baseline",8.8 mmHg
same,Left ventricular end diastolic pressure,"Test drug 2: 0.3 mg/kg i.v. over 30 s only, 25 minutes before test drug (just after the start of CaCl2), baseline",8.6 mmHg
same,Left ventricular end diastolic pressure,"Test drug 2: 0.3 mg/kg i.v. over 30 s only, CaCl2 + norepinephrine infusion, 5 minutes after the start of test drug administration",13.8 mmHg
same,Left ventricular end diastolic pressure,"Test drug 2: 0.3 mg/kg i.v. over 30 s only, CaCl2 + norepinephrine infusion, 10 minutes after the start of test drug administration",16.4 mmHg
same,Left ventricular end diastolic pressure,"Test drug 2: 0.3 mg/kg i.v. over 30 s only, CaCl2 + norepinephrine infusion, 15 minutes after the start of test drug administration",15.3 mmHg
same,Left ventricular end diastolic pressure,"Test drug 2: 0.3 mg/kg i.v. over 30 s only, CaCl2 + norepinephrine infusion, 30 minutes before test drug (5 minutes before the start of CaCl2), baseline",8.4 mmHg
